Data as given in paper PMC6893741, “Docosahexaenoic Acid Inhibits PTP1B Phosphatase and the Viability of MCF-7 Breast Cancer Cells” (Nutrients, 2019).

Molecular target: T1, Protein tyrosine phosphatase 1B (PTP1B) (Homo sapiens, UniProt P18031)
T1 construct: gene PTPN1; recombinant PTP1B
T1 sequence (P18031 1-435): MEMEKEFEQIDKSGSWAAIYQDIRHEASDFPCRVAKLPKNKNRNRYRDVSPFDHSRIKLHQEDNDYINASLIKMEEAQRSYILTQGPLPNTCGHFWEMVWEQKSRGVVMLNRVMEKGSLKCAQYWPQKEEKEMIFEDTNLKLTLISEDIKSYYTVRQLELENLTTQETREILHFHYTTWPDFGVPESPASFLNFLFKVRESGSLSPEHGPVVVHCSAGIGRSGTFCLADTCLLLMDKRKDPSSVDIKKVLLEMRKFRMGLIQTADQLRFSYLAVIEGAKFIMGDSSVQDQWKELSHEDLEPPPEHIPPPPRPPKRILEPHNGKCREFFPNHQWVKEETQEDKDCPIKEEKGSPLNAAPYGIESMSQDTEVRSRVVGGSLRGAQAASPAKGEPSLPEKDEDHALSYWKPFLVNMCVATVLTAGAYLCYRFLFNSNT
Test: recombinant PTP1B activity assay with pNPP, absorbance at […] nm, […] min incubation
Type: biochemical

IC50: 174 ± 25.5 µM
Structure (SMILES): CC/C=C\C/C=C\C/C=C\C/C=C\C/C=C\C/C=C\CCC(=O)O [DHA, docosahexaenoic acid]
